Here are results for one molecule from patent US20240287074A1, “SALTS AND CRYSTALS” (Kinoxis Therapeutics Pty Ltd, priority 2020, published 2024).

Where a name gives a salt, the structure may show the parent alone. Read-outs that look alike come from different tables or passages of the source. Marks after values point to notes of the source that are not given here.

Data set [1] addresses T1, orthosteric oxytocin receptor binding sites (Homo sapiens, UniProt P30559).
T1 sequence (P30559 1-389): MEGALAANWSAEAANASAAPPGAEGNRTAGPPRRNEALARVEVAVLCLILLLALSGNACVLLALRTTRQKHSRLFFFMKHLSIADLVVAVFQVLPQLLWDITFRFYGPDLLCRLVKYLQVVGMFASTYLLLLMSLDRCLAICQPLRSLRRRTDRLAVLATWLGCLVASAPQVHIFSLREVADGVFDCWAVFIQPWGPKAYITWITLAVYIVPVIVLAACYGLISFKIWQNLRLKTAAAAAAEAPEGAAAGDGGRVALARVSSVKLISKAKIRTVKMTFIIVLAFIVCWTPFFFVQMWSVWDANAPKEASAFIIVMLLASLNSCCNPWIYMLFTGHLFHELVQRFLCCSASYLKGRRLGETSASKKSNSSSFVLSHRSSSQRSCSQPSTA
As to conditions: cited from earlier work.

Data set [2] relates to C57BL/6 mouse model of opioid withdrawal. Nature of the data set: Naloxone precipitated oxycodone withdrawal-induced jumping. The note with it: 7.3 mg/kg FBE i.p., C57BL/6 mice, 30 min session, vs OXY_VEH. The class given is in vivo. The method, then: Two cohorts of adult male C57BL/6 mice were run assessing the effects of 7.3 mg/kg freebase equivalent (FBE) IP of the compound of the invention in the dihydrochloride salt form (CMPD1-2HCL) and the phosphate form 1 (CMPD1-PO4) on naloxone precipitated withdrawal-induced jumping.
The first cohort of mice (N=30) were split into the following conditions: • (1) Vehicle, 0 mg/kg (n=10); • (2) oxycodone, 0 mg/kg compound of the invention FBE in 2HCL salt form (n=10); • (3) oxycodone, 7.3 mg/kg compound of the invention FBE in 2HCL salt form (n=10).
The second cohort of mice (N=24) were split into the following conditions: • (1) Vehicle, 0 mg/kg (n=8); • (2) oxycodone, 0 mg/kg compound of the invention FBE in PO4 salt form (n=8); • (3) oxycodone, 7.3 mg/kg compound of the invention FBE in PO4 salt form (n=8).
Mice in the oxycodone conditions received i.p. injections of oxycodone for 5 days according to the schedule and doses set out in Table 8. The morning and afternoon doses were separated by 7 h. Mice in the vehicle condition received injections of vehicle saline instead of oxycodone. […]
Testing involved placing mice individually into a 20 (I)×20 (w)×30 (h) cm arena for 30 min. […] Number of jumps were scored from the videos by an experienced experimenter blind to conditions.
Data were analysed by SPSS using oneway ANOVA and planned contrasts.

Data set [3] has as its system orthosteric vasopressin receptor binding sites. The note with it: cited from earlier work.
The nature of data set [4]: Oral pharmacokinetics in rats. The note with it: for Plasma AUC0-inf/Dose / Plasma Cmax/Dose: dose-normalised; for Plasma AUC0-inf/Dose / Plasma Cmax/Dose / BA % / % Dose in urine: male Sprague Dawley rats; for Plasma AUC0-inf/Dose / Plasma Cmax/Dose / % Dose in urine: dihydrochloride; for BA % / % Dose in urine / Cmax / half-life / AUC(0-inf) / Tmax: 5 mg/kg target dose (freebase equivalent), 5 mg/kg; for BA % / Cmax / half-life / AUC(0-inf) / Tmax: mean ± SD; for BA %: n = 3, dihydrochloride; for % Dose in urine: urine up to 24 h; for Cmax / half-life / AUC(0-inf) / Tmax: male, Sprague Dawley, rat, plasma, po; for Cmax: n = 3; for half-life: n = 3, read-out: Apparent t1/2 (converted); for AUC(0-inf): n = 3, read-out: Plasma AUC0-inf; for Tmax: n = 3, read-out: Tmax. The format is in vivo. The method, then: N=3 rats were run in each of the four conditions: • (1) Di-HCL salt in saline • (2) Di-HCL salt in methocel • (3) Phosphate form 1 in saline • (4) Phosphate form 1 in methocel
On the day of dosing the solid compounds were dissolved in either Saline (0.9%) or 0.5% hydroxypropyl methylcellulose (Methocel E3 Premium LV) in Milli-Q water. The formulations were then thoroughly vortexed to produce colourless solutions.
Overnight-fasted rats with adlibitum access to water were administered their dose of the various forms of the compound of the invention via oral gavage (PO) at a dose volume of 3 ml/kg and a dose of 5 mg/kg freebase equivalent. Food access was re-instated 4 hours (h) post-dose. Samples of arterial blood were collected up to 24 h post-dose. After collection, samples were centrifuged, plasma was removed and stored frozen at −80° C. before being analysed by LC-MS. Urine samples were collected at pre, 0-4 h, 4-7 h and 7-24 h post-dose and were analysed by LC-MS following extraction.

A short description of data set [5]: Dynamic / gravimetric vapour sorption (DVS/GVS) hygroscopicity. The class given is physicochemical. The method, then: Approximately, 10-20 mg of sample was placed into a mesh vapour sorption balance pan and loaded into a DVS Intrinsic dynamic vapour sorption balance by Surface Measurement Systems. The sample was subjected to a ramping profile from 40-90% relative humidity (RH) at 10% increments, maintaining the sample at each step until a stable weight had been achieved (dm/dt 0.004%, minimum step length 30 minutes, maximum step length 500 minutes) at 25° C. After completion of the sorption cycle, the sample was dried using the same procedure to 0% RH and then a second sorption cycle back to 40% RH. Two cycles were performed. The weight change during the sorption/desorption cycles were plotted, allowing for the hygroscopic nature of the sample to be determined. XRPD analysis was then carried out on any solid retained.
Approximately 10-20 mg of sample was placed into a mesh vapour sorption balance pan and loaded into an IGASorp Moisture Sorption Analyser balance by Hiden Analytical. The sample was subjected to a ramping profile from 40-90% relative humidity (RH) at 10% increments, maintaining the sample at each step until a stable weight had been achieved (98% step completion, minimum step length 30 minutes, maximum step length 60 minutes) at 25° C. After completion of the sorption cycle, the sample was dried using the same procedure to 0% RH, and finally taken back to the starting point of 40% RH. Two cycles were performed. The weight change during the sorption/desorption cycles were plotted, allowing for the hygroscopic nature of the sample to be determined.

For the molecule `Cn1ncc2c1Nc1ccccc1NC2` [Di-hydrochloride salt, 1-Methyl-1,4,5,10-tetrahydropyrazolo[3,4-b][1,5]benzodiazepine dihydrochloride], the “binding affinity for the orthosteric oxytocin receptor binding sites” value in data set [1] is recorded as “without demonstrating significant binding affinity”. For the same molecule, the oxycodone withdrawal-induced jumping result in data set [2] is recorded as “significantly inhibited”. In addition, in data set [3], the “binding affinity for the orthosteric vasopressin receptor binding sites” value is given as “without demonstrating significant binding affinity”. Besides, in data set [4] (Methocel), the “Plasma AUC0-inf/Dose” value is on record as 0.91 ± 0.12 (μg*h/mL)/(mg/kg), the “Plasma Cmax/Dose” value is 0.40 ± 0.02 (μg/mL)/(mg/kg), the BA % is reported as 98.9 ± 13^b % and the “% Dose in urine” value is 0.224 ± 0.14%. Moreover, in data set [4] (Methocel), the Cmax is 1800 ± 110 ng/mL, the half-life is 40.8 ± 12 min, the AUC(0-inf) came to 4100 ± 520 ng·h/mL and the Tmax is 19.8 ± 6 min. In addition, in data set [4] (Saline), the “Plasma AUC0-inf/Dose” value is given as 1.14 ± 0.12 (μg*h/mL)/(mg/kg), the “Plasma Cmax/Dose” value was 0.61 ± 0.29 (μg/mL)/(mg/kg), the BA % amounted to 124 ± 13% and the “% Dose in urine” value is listed as 0.184 ± 0.059%. Besides, in data set [4] (Saline), the Cmax was found to be 2930 ± 1360 ng/mL, the half-life was 41.4 ± 6 min, the AUC(0-inf) turned out to be 5460 ± 540 ng·h/mL and the time of peak concentration (Tmax) is 45 ± 24 min. In data set [5], the “relative humidity above which form change is indicated by DVS” value was “above 60 % RH” and the “relative humidity below which the weight change is reversible (DVS)” value is on record as “below 30 % RH”. In data set [5] (DVS, 25° C., dihydrochloride), the hygroscopicity entry is recorded as “high hygroscopicity”.

The term Cmax denotes the peak of the concentration-time curve. A word on the Tmax: it is the time at which the peak concentration occurs.
